Data from the NIST ThermoML archive (doi:10.1016/j.jct.2006.03.008).
“And” between values parts separate entries of the source, which are not always exact repeats. Equal entries are not always repeated. Numbers after ± are expanded uncertainties.

Conditions: for vapor or sublimation pressure: Closed cell (Static) method; for mass density: Fluid (supercritical or subcritical phases), Bellows volumetry

For `CC(C)C` [2-methylpropane], the “vapor or sublimation pressure” value (310 K, Liquid) was 489.5 ± 1.8 kPa [middle of 6 runs], the mass density (405 K, 3464.7 kPa) was 185 ± 15 kg/m3 and the mass density (405 K, 3467.3 kPa) was 199.9 ± 15 kg/m3 and 200 ± 15 kg/m3. It also gave a mass density (405 K, 3468 kPa) of 200 ± 15 kg/m3, a mass density (405 K, 3468.4 kPa) of 200 ± 15 kg/m3 and a mass density (405 K, 3469.9 kPa) of 264.9 ± 51 kg/m3. For the same compound, the “vapor or sublimation pressure” value (405 K, Liquid) was 3468.8 ± 5.4 kPa [middle of 6 runs], the mass density (406 K, 3523.7 kPa) was 184.9 ± 60 kg/m3 and the mass density (406 K, 3525.7 kPa) was 199.9 ± 60 kg/m3. The mass density (406 K, 3528.1 kPa) was 264.9 ± 60 kg/m3, the “vapor or sublimation pressure” value (406 K, Liquid) was 3527 ± 5.5 kPa [middle of 6 runs] and the mass density (407 K, 3582.1 kPa) was 185.4 ± 60 kg/m3. The mass density (407 K, 3585 kPa) was 200.3 ± 60 kg/m3, the “vapor or sublimation pressure” value (407 K, Liquid) was 3585.5 ± 5.6 kPa [middle of 7 runs] and the mass density (407.5 K, 3613.8 kPa) was 185 ± 13 kg/m3. For the same compound, the mass density (407.5 K, 3617.5 kPa) was 199.9 ± 13 kg/m3, the mass density (407.5 K, 3617.7 kPa) was 200.4 ± 13 kg/m3 and the mass density (407.5 K, 3620.6 kPa) was 265 ± 38 kg/m3. For the same compound, the “vapor or sublimation pressure” value (407.5 K, Liquid) was 3619 ± 5.6 kPa [middle of 6 runs], the mass density (407.89 K, 3632.3 kPa) was 184.9 ± 9.4 kg/m3 and the mass density (407.89 K, 3637.6 kPa) was 200.1 ± 20 kg/m3. It also gave a mass density (407.89 K, 3640.5 kPa) of 240 ± 21 kg/m3, a mass density (407.89 K, 3640.6 kPa) of 250 ± 22 kg/m3 and a mass density (407.89 K, 3640.8 kPa) of 250.2 ± 22 kg/m3. The mass density (407.89 K, 3640.9 kPa) was 241.4 ± 30 kg/m3, the mass density (407.89 K, 3641.3 kPa) was 250.5 ± 31 kg/m3 and the mass density (407.89 K, 3644.5 kPa) was 263.7 ± 21 kg/m3. It also gave a mass density (407.89 K, 3644.6 kPa) of 264.9 ± 16 kg/m3, a mass density (408 K, 3635.8 kPa) of 184.1 ± 6.8 kg/m3 and a mass density (408 K, 3638.1 kPa) of 184.9 ± 9 kg/m3. For the same compound, the mass density (408 K, 3643.7 kPa) was 200 ± 22 kg/m3, the mass density (408 K, 3644.2 kPa) was 200.4 ± 20 kg/m3 and the mass density (408 K, 3645.6 kPa) was 220 ± 19 kg/m3. It also gave a mass density (408 K, 3646.4 kPa) of 227.5 ± 19 kg/m3, a mass density (408 K, 3646.6 kPa) of 240 ± 19 kg/m3 and a mass density (408 K, 3646.8 kPa) of 220.1 ± 19 kg/m3. The mass density (408 K, 3647.4 kPa) was 249.9 ± 24 kg/m3, the mass density (408 K, 3652.4 kPa) was 265.5 ± 11 kg/m3 and the mass density (409 K, 3692.1 kPa) was 184.7 ± 5.5 kg/m3. For the same compound, the mass density (409 K, 3692.8 kPa) was 184.9 ± 5.8 kg/m3, the mass density (409 K, 3702.2 kPa) was 200 ± 7.4 kg/m3 and the mass density (409 K, 3702.8 kPa) was 200.4 ± 7.3 kg/m3. The mass density (409 K, 3708.3 kPa) was 219.8 ± 12 kg/m3, the mass density (409 K, 3708.5 kPa) was 219.9 ± 12 kg/m3 and the mass density (409 K, 3708.9 kPa) was 220.4 ± 12 kg/m3. For the same compound, the mass density (409 K, 3709.7 kPa) was 224.2 ± 12 kg/m3, the mass density (409 K, 3710.5 kPa) was 227.4 ± 11 kg/m3 and the mass density (409 K, 3713.6 kPa) was 239.9 ± 11 kg/m3. It also gave a mass density (409 K, 3717.7 kPa) of 250 ± 5.5 kg/m3, a mass density (409 K, 3718.4 kPa) of 250.4 ± 5.5 kg/m3 and a mass density (409 K, 3729 kPa) of 265 ± 4.9 kg/m3. For the same compound, the mass density (410 K, 3745.3 kPa) was 185 ± 4.5 kg/m3, the mass density (410 K, 3757.5 kPa) was 200 ± 4.7 kg/m3 and the mass density (410 K, 3758.2 kPa) was 200 ± 4.7 kg/m3. For the same compound, the mass density (410 K, 3764.3 kPa) was 210 ± 6.1 kg/m3, the mass density (410 K, 3769.4 kPa) was 220 ± 6.8 kg/m3 and the mass density (410 K, 3772.2 kPa) was 227.4 ± 6.8 kg/m3. It also gave a mass density (410 K, 3772.5 kPa) of 228.1 ± 6.8 kg/m3, a mass density (410 K, 3779.4 kPa) of 240 ± 5.7 kg/m3 and a mass density (410 K, 3785.9 kPa) of 250 ± 3.9 kg/m3. The mass density (410 K, 3786.3 kPa) was 250.4 ± 3.9 kg/m3, the mass density (410 K, 3802.3 kPa) was 265 ± 3.5 kg/m3 and the mass density (410 K, 3802.8 kPa) was 265.2 ± 3.4 kg/m3. For the same compound, the Critical pressure (Liquid, Direct measurement) was 3639 ± 4.8 kPa and the Critical temperature (Liquid, Visual observation in an unstirred cell) was 407.88 ± 0.062 K.
